Test results taken from DBAASP.
Converted amounts (≈) assume the structure as drawn. “And” between values parts separate entries of the source, which are not always exact repeats. Equal values may be shown once. One block for each molecule: values may come before it.

Columns and labels:
Experiment in all cases: ≥ marks a high value that may be exact or a test limit, other limits are often not marked, values filed in µg/mL are converted to µM
[1] = test system: Escherichia coli ATCC 35218
Bacillus megaterium = test system: Bacillus megaterium
Saccharomyces cerevisiae = test system: Saccharomyces cerevisiae
Aspergillus flavus = test system: Aspergillus flavus
[2] = test system: Pseudomonas aeruginosa ATCC 27853
[3] = test system: Staphylococcus aureus ATCC 25923
[4] = test system: Escherichia coli ATCC 25922
[5] = test system: Candida albicans ATCC 90028
[6] = test system: Enterococcus faecalis ATCC 29212
[7] = test system: Candida parapsilosis ATCC 22019
Serratia rubidaea X01 = test system: Serratia rubidaea X01
[8] = test system: Rhodococcus rhodochrous X15
[9] = test system: Bacillus licheniformis X39
[10] = test system: Staphylococcus carnosus KHS
[11] = test system: Psychrobacter faecalis X29
[12] = test system: Enterococcus faecalis 981
[13] = test system: Klebsiella pneumoniae ATCC 700603
[14] = test system: Escherichia coli ATCC 25726
[15] = test system: Acinetobacter baumannii I NM8
[16] = test system: Enterobacter cloacae ATCC 13047
Escherichia coli K-12 = test system: Escherichia coli K-12
Escherichia coli 117 = test system: Escherichia coli 117
Escherichia coli 37 = test system: Escherichia coli 37
Klebsiella pneumoniae = test system: Klebsiella pneumoniae
[17] = test system: Staphylococcus aureus USA 300
Pseudomonas aeruginosa = test system: Pseudomonas aeruginosa
Shigella dysenteriae = test system: Shigella dysenteriae
Escherichia coli 218 = test system: Escherichia coli 218
[18] = test system: Candida albicans ATCC 2002
Staphylococcus aureus 37 = test system: Staphylococcus aureus 37
[19] = test system: Pseudomonas aeruginosa CMCCB 1010
[20] = test system: Vibrio alginolyticus ATCC 17749
Fusarium oxysporum = test system: Fusarium oxysporum
Candida sp. = test system: Candida sp.
[21] = test system: Staphylococcus aureus ATCC 25293
[22] = test system: Bacillus megaterium ATCC 17749
[23] = test system: Staphylococcus epidermidis ATCC 12228
[24] = test system: Salmonella enterica subsp. enterica serovar Newport
[25] = test system: Micrococcus luteus ATCC 4698
[26] = test system: Escherichia coli 363 ATCC 11775
[27] = test system: Vibrio metschnikovii NCTC 8483
[28] = test system: Staphylococcus aureus ATCC 2592
[29] = test system: Helicobacter pylori NCTC 11637

SMILES: CC[C@H](C)[C@H](NC(=O)[C@H](Cc1cnc[nH]1)NC(=O)[C@H](CO)NC(=O)[C@H](CC(C)C)NC(=O)[C@@H](N)Cc1ccccc1)C(=O)N[C@@H](C)C(=O)NCC(=O)N[C@@H](Cc1ccccc1)C(=O)N[C@@H](CC(C)C)C(=O)N[C@@H](CO)C(=O)N[C@@H](CC(N)=O)C(=O)N[C@@H](CC(C)C)C(=O)N[C@@H](Cc1ccccc1)C(=O)O [FLSHIAGFLSNLF]
MIC [1]: ≥ 80 µM
MIC (Bacillus megaterium): 4 µM (≈ 5.86 µg/mL)
MIC (Saccharomyces cerevisiae): 10 µM (≈ 14.7 µg/mL)
MIC (Aspergillus flavus): 10 µM (≈ 14.7 µg/mL)
MIC [2]: > 161 µM
MIC [3]: 10 µM (≈ 14.7 µg/mL)
MIC [4]: 161 µM (≈ 236 µg/mL)
MIC [5]: 20 µM (≈ 29.3 µg/mL)
MIC [6]: > 80 µM
MIC [7]: 20 µM (≈ 29.3 µg/mL)

SMILES: CC[C@H](C)[C@H](NC(=O)[C@@H](NC(=O)[C@H](CO)NC(=O)[C@H](C)NC(=O)[C@H](CC(C)C)NC(=O)CN)[C@@H](C)O)C(=O)NCC(=O)N[C@@H](CO)C(=O)N[C@@H](CC(C)C)C(=O)N[C@@H](CC(C)C)C(=O)NCC(=O)N[C@@H](CCCCN)C(=O)N[C@@H](Cc1ccccc1)C(=O)N[C@@H](C)C(=O)N[C@@H](CCCCN)C(=O)NCC(=O)NCC(=O)N[C@@H](C)C(=O)N[C@@H](CCC(N)=O)C(=O)N[C@@H](C)C(=O)N[C@@H](Cc1ccccc1)C(=O)N[C@@H](CC(C)C)C(=O)N[C@@H](CCC(N)=O)C(=O)N1CCC[C@H]1C(=O)N[C@@H](CCCCN)C(=O)O [GLASTIGSLLGKFAKGGAQAFLQPK]
MIC [13]: > 50 µM
MIC [3]: 80 µM and 100 µM
MIC [5]: ≥ 50 µM
MIC [14]: ≥ 160 µM
MIC [15]: 25 µM (≈ 61.5 µg/mL)

SMILES: CC[C@H](C)[C@H](N)C(=O)N[C@@H](CC(N)=O)C(=O)N[C@@H](CC(C)C)C(=O)N[C@@H](CCCCN)C(=O)N[C@@H](C)C(=O)N[C@H](C(=O)N[C@@H](C)C(=O)N[C@@H](C)C(=O)N[C@@H](CC(C)C)C(=O)N[C@@H](C)C(=O)N[C@@H](CCCCN)C(=O)N[C@@H](CCCCN)C(=O)N[C@@H](CC(C)C)C(=O)N[C@@H](CC(C)C)C(=O)O)[C@@H](C)CC [INLKAIAALAKKLL]
MIC [16]: 13.5 µM (≈ 20 µg/mL)
MIC (Escherichia coli K-12): 25 µM (≈ 37 µg/mL)
MIC (Escherichia coli 117): 27 µM (≈ 40 µg/mL)
MIC [13]: 6.76 µM (≈ 10 µg/mL)
MIC [2]: 3.38 µM (≈ 5 µg/mL)
MIC (Escherichia coli 37): 6.76 µM (≈ 10 µg/mL)
MIC (Klebsiella pneumoniae): 6.76 µM (≈ 10 µg/mL)
MIC [17]: ≥ 100 µM
MIC [3]: 3.38 µM (≈ 5 µg/mL)
MIC [4]: 13.5 µM (≈ 20 µg/mL)
MIC (Pseudomonas aeruginosa): 3.38 µM (≈ 5 µg/mL)
MIC (Shigella dysenteriae): 3.38 µM (≈ 5 µg/mL)
MIC (Escherichia coli 218): 13.5 µM (≈ 20 µg/mL)
MIC [5]: 6.76 µM (≈ 10 µg/mL)
MIC [6]: 1.69 µM (≈ 2.5 µg/mL)
MIC [18]: 6.76 µM (≈ 10 µg/mL)
MIC (Staphylococcus aureus 37): 6.76 µM (≈ 10 µg/mL)
MIC [7]: 27 µM (≈ 40 µg/mL)
MIC [19]: 27 µM (≈ 40 µg/mL)

SMILES: CC(C)C[C@@H]1NC(=O)[C@H](CCCN=C(N)N)NC(=O)[C@H](Cc2cnc[nH]2)NC(=O)[C@H](Cc2c[nH]c3ccccc23)NC(=O)CNC(=O)CNC(=O)[C@@H](NC(=O)[C@H](Cc2ccc(O)cc2)NC(=O)CNC(=O)CNC(=O)[C@@H](N)CO)CSSC[C@@H](C(=O)N[C@H](C(=O)N[C@@H](CO)C(=O)N[C@@H](Cc2ccc(O)cc2)C(=O)N[C@@H](CCCN=C(N)N)C(=O)N[C@@H](CO)C(=O)NCC(=O)O)[C@@H](C)O)NC(=O)[C@H](CCCN=C(N)N)NC1=O [SGGYCGGWHRLRCTSYRSG]
MIC [20]: ≥ 75 µM
MIC (Fusarium oxysporum): 13 µM (≈ 27.3 µg/mL)
MIC (Candida sp.): 8 µM (≈ 16.8 µg/mL)
MIC [21]: 17 µM (≈ 35.7 µg/mL)
MIC [22]: ≥ 34 µM
MIC [23]: 41 µM (≈ 86.2 µg/mL)
MIC [24]: ≥ 75 µM
MIC [25]: 16 µM (≈ 33.6 µg/mL)
MIC [26]: ≥ 62 µM
MIC [27]: ≥ 75 µM

Second part, the molecule after the results:

MIC (Serratia rubidaea X01): 2.3 µM (≈ 7.83 µg/mL)
MIC [8]: 2.3 µM (≈ 7.83 µg/mL)
MIC [9]: ≥ 75 µM
MIC [3]: 37.5 µM (≈ 128 µg/mL)
MIC [10]: ≥ 37.5 µM
MIC [4]: 150 µM (≈ 511 µg/mL)
MIC [11]: 2.3 µM (≈ 7.83 µg/mL)
MIC [12]: ≥ 37.5 µM
SMILES: CC[C@H](C)[C@H](NC(=O)CNC(=O)[C@H](Cc1ccccc1)NC(=O)[C@H](CCC(=O)O)NC(=O)[C@H](CCCCN)NC(=O)[C@H](CC(C)C)NC(=O)[C@H](CCCCN)NC(=O)[C@H](CC(=O)O)NC(=O)[C@H](CC(C)C)NC(=O)[C@@H](NC(=O)CN)[C@@H](C)CC)C(=O)N[C@@H](CO)C(=O)N[C@@H](C)C(=O)N[C@@H](C)C(=O)N[C@@H](CCCN=C(N)N)C(=O)NCC(=O)N[C@H](C(=O)N[C@@H](C)C(=O)N[C@@H](CCC(N)=O)C(=O)N[C@@H](CO)C(=O)N[C@@H](CC(C)C)C(=O)N[C@@H](CC(C)C)C(=O)N[C@@H](CC(N)=O)C(=O)N[C@H](C(=O)N[C@@H](C)C(=O)N[C@@H](CO)C(=O)N[C@H]1CSSC[C@@H](C(=O)O)NC(=O)[C@H]([C@@H](C)O)NC(=O)[C@H](CCCCN)NC(=O)[C@H](C)NC(=O)[C@H](CC(C)C)NC(=O)[C@H](CCCCN)NC1=O)[C@@H](C)O)C(C)C [GILDKLKEFGISAARGVAQSLLNTASCKLAKTC]

MIC [28]: 4.95 µM (≈ 15 µg/mL)
MIC [4]: 19.8 µM (≈ 60 µg/mL)
MIC (Shigella dysenteriae): 19.8 µM (≈ 60 µg/mL)
MIC [29]: 9.91 µM (≈ 30 µg/mL)
MIC [18]: 9.91 µM (≈ 30 µg/mL)
SMILES: CC[C@H](C)[C@H](NC(=O)[C@H](CCC(N)=O)NC(=O)[C@H](CCCCN)NC(=O)[C@H](Cc1c[nH]c2ccccc12)NC(=O)[C@H](CO)NC(=O)[C@H](CCC(N)=O)NC(=O)[C@@H]1CCCN1C(=O)[C@H](CC(C)C)NC(=O)[C@H](CCCCN)NC(=O)[C@H](C)NC(=O)[C@H](CCC(=O)O)NC(=O)[C@H](CCCCN)NC(=O)[C@@H](NC(=O)[C@H](CCSC)NC(=O)[C@@H](NC(=O)[C@@H](NC(=O)[C@@H](NC(=O)[C@@H](N)CO)[C@@H](C)CC)[C@@H](C)CC)[C@@H](C)O)[C@@H](C)O)C(=O)N[C@@H](C)C(=O)N[C@H]1CSSC[C@@H](C(=O)O)NC(=O)[C@H]([C@@H](C)O)NC(=O)[C@H](CC(N)=O)NC(=O)[C@H](Cc2ccc(O)cc2)NC(=O)[C@H](CC(C)C)NC(=O)[C@H](CCCN=C(N)N)NC1=O [SIITMTKEAKLPQSWKQIACRLYNTC]
